US20230173071A1, “TREATMENT OF MYOPIA AND OTHER OCULAR CONDITIONS USING SINGLET OXYGEN GENERATED FROM DYES ACTIVATED BY NEAR-INFRARED LIGHT” (California Institute of Technology, priority 2018, published 2023)
Entries after “also recorded” stand apart in the source; their conditions may differ. One block for each molecule: values may come before it.

Legend:
[1] = Dye stability observations
Method: Unfortunately, IR-1061-pyridinium was unatable in the presence of water. In an attempt to overcome the susceptibility of IR-1061-pyridinium to hydration, the pyridine charge-transfer partner was exchanged for acridine, which was expected to shield the dye from water addition due to its additional bulk.
To confirm that the process was singlet oxygen-mediated, irradiation of a freeze-pump-thawed sample—devoid of oxygen—was carried out. […] To evaluate the scope of the reaction, the dye was irradiated in an array of deuterated solvents.

[2] = Irradiation of IR-1061 dyes with DPBF, 980 nm or 1064 nm laser; format: physicochemical; settings: for DPBF signal relative to a dark control: 30 minutes of irradiation, 1 W cm^-2 980 nm laser
Method: Initial work was done using a set of IR-1061 derivatives: cited herein as IR-1061-pyridine and IR-1061-pyridinium.
Like IR-1061-pyridinium, IR-1061-acridinium was irradiated in CDCl3 in the presence of DPBF using a 1 W cm^−2 980 nm laser (FIG. 15(A)). As a comparison, a similar irradiation was carried out using a 1.8 W cm^−2 1064 nm laser (FIG. 16). The collective effect of irradiation wavelength and conditions are seen in FIGS. 15(A-C), and FIGS. 16-18.

[3] = Singlet oxygen generation by DPBF decay (UV-Vis), 810 nm LED; format: physicochemical
Text: To evaluate the efficiency of singlet oxygen generation by ICG and an analog (IR-820) in vitro, the singlet oxygen generation was monitored. 1,3-diphenylisobenzofuran (DPBF), a compound that decays in the presence of singlet oxygen, and singlet oxygen sensor green (SOSG), a dye that increases fluorescence in the presence of singlet oxygen, were used as markers to indicate singlet oxygen generation by ICG and IR-820. […] For SOSG analysis, the fluorescence turn-on in H2O and D2O was compared to that observed when riboflavin—an FDA approved dye used in conjunction with UV light to treat keratoconus (corneal expansion)—was usedIn all cases, an increase in fluorescence emission at 525 nm was observed (using a 488nm excitation).

[4] = Irradiation of IR-1061 dyes with DPBF, 980 nm or 1064 nm laser; format: physicochemical
[5] = Singlet oxygen sensor green (SOSG) fluorescence measurements; format: physicochemical; settings: dye 0.1 mg/mL; 3 mW at 365 nm; 488 nm excitation
Method: Singlet oxygen sensor green (SOSG) is a common reagent for measuring singlet oxygen generation in aqueous systems. The marker becomes more fluorescent as singlet oxygen is generated. All time measurements were done in triplicate (100 μL aliquots from an irradiated sample). A Molecular Devices Flexstation was used to read out the fluorescence measurements with the excitation/emission at 488/525 nm.
SOSG fluorescence turn on was initially measured using riboflavin as a point of comparison for the efficacy of ICG irradiations. Measurements used a dye concentration of 0.1 mg/mL and the irradiation the parameters (3 mW at 365 nm) used in the FDA approved procedure for keratoconus (corneal expansion). The mixture was stirred during irradiation.
Stocks of the ICG formulations (both H2O and D2O) were made to be 1 mg/mL ICG and 0.01% benzalkonium chloride (BAC). These were diluted to a dye concentration of 0.1 mg/mL for the SOSG tests with no adjustments for the BAC. The sample was irradiated with 810 nm light at 200 mW and stirred throughout the irradiation.

porcine sclera = settings: treated with UV light and riboflavin; previous work; cited from earlier work
[6] = Dye solubility observations; format: physicochemical; settings: counterion exchanged from BF4- to BarF-
Method: ICG is a NIR-absorbing heptamethine dye that has the potential of generating singlet oxygen upon irradiation and has a λmax ranging from 780-810 nm depending on the context. […] BAC along with other cationic surfactants (alkyl ammonium salts, polyoxyethylene alkyl amines, amide linked alkyl amines, alkyl imidazolines, etc.) aid in the solubility of the dye in aqueous media. […] The standard formulation used in these studies consisted of 0.05 to 5.0 mg/mL ICG and 0.01% to 0.001% BAC in solution. D2O was selected as the solvent to increase the lifetime of singlet oxygen and therefore the crosslinking capability of the species. […] Fluorinated solvents (perfluorohexane, perfluorotripentylamine, etc.) are also of interest due to their ability to dissolve more oxygen and their robust inertness.

[7] = deuterated polar aprotic solvents, such as DMSO
[8] = water (D2O with 7.5% DMSO-D6), 980 nm

Compound: C(/C=C1\CCCC(/C=C/c2cc(-c3ccccc3)[s+]c(-c3ccccc3)c2)=C1[n+]1ccccc1)=C1C=C(c2ccccc2)SC(c2ccccc2)=C1 [IR-1061-pyridinium]
stability in the presence of water [1]: unatable
DPBF signal relative to a dark control [2]: significant decrease

Compound: CC1(C)C(=CC=C2CCCC(C=CC3=[N+](CCCCS(=O)(=O)[O-])c4ccc5ccccc5c4C3(C)C)=C2Cl)N(CCCCS(=O)(=O)[O-])c2ccc3ccccc3c21.[Na+] [IR-820]
DPBF decay / singlet oxygen generation in D2O compared to H2O ([3]; 810 nm LED): increase; also recorded: faster decay rate
DPBF signal decay when irradiated ([3]; D2O, 810 nm LED): marked increase in the signal decay
DPBF signal decay when irradiated ([3]; H2O, 810 nm LED): marked increase in the signal decay
singlet oxygen generation (DPBF analysis) ([3]; in H2O or D2O): singlet oxygen generation was observed

DPBF degradation [4, 7]: decreased
photobleaching of the dye [4, 7]: photobleaching
DPBF degradation rates [4, 8]: comparable to those seen in chloroform
photobleaching of the dye [4, 8]: high levels
Compound: C(/C=C1\CCCC(/C=C/c2cc(-c3ccccc3)[s+]c(-c3ccccc3)c2)=C1[n+]1c2ccccc2cc2ccccc21)=C1C=C(c2ccccc2)SC(c2ccccc2)=C1 [IR-1061-acridinium]
stability to strong acids and bases ([1]; prior to irradiation): dye instability and bleaching prior to irradiation
singlet oxygen generation ([4]; deuterated nonpolar solvents, such as toluene): no singlet oxygen generation was observed
dye and DPBF signal during irradiation ([2]; 1064 nm in CDCl3): Rapid bleaching of both the dye and DPBF signal
DPBF signal ([2]; freeze-pump-thawed CDCl3 (devoid of oxygen), 980 nm): no change

Compound: Cc1cc2nc3c(=O)[nH]c(=O)nc-3n(C[C@H](O)[C@H](O)[C@H](O)CO)c2cc1C [riboflavin]
SOSG fluorescence emission at 525 nm [5]: increase
change in Young's Modulus of pig sclera (porcine sclera): minimal change

solubility [6]: increase
Compound: C(/C=C1\CCCC(/C=C/c2cc(-c3ccccc3)[s+]c(-c3ccccc3)c2)=C1[n+]1c2ccccc2cc2ccccc21)=C1C=C(c2ccccc2)SC(c2ccccc2)=C1 [IR-1061-Acridinium BArF]
photosensitization capability ([2]; counterion exchanged from BF4- to BarF-): marked decrease

Compound: ClC1=C(/C=C/c2cc(-c3ccccc3)[s+]c(-c3ccccc3)c2)CCC/C1=C\C=C1C=C(c2ccccc2)SC(c2ccccc2)=C1 [IR-1061]
DPBF signal relative to a dark control [2]: no significant changes
